# Measured values: patent US20260285850A1, “SUBSTITUTED OXAZOLIDINONES AND IMIDAZOLINONES AS HERBICIDES” (FMC CORPORATION, priority 2023, published 2026)
# Tests used:
# Assay type in all cases: in vivo
# [1] = system: oat, wild (wild oat, Avena fatua); assay: Test A postemergence application, visual injury rating 0-100
# In short: (§1)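 Seeds sown in loam-sand blend got a preemergence directed soil spray, or emerged plants (2-10 cm, one- to two-leaf) got a postemergence spray, of compound in non-phytotoxic solvent with surfactant. After 10 days in greenhouse, injury rated visually versus untreated controls on a 0 (no effect) to 100 (complete control) scale.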
# [2] = system: ryegrass, Italian (italian ryegrass, Lolium multiflorum); assay: as above
# In short: as §1
# [3] = system: horseweed (Erigeron canadensis); assay: as above
# In short: as §1
# [4] = system: ragweed (common ragweed, Ambrosia artemisiifolia); assay: as above
# In short: as §1
# [5] = system: soybean (Glycine max); assay: as above
# In short: as §1
# [6] = system: galium (catchweed bedstraw, Galium aparine); assay: as above
# In short: as §1
# [7] = system: green foxtail (Setaria viridis); assay: as above
# In short: as §1
# [8] = system: kochia (Bassia scoparia); assay: as above
# In short: as §1
# [9] = system: barnyardgrass (Echinochloa crus-galli); assay: as above
# In short: as §1
# [10] = system: palmer (palmer amaranth, palmer pigweed, Amaranthus palmeri); assay: as above
# In short: as §1
# [11] = system: corn (Zea mays); assay: as above
# In short: as §1
# [12] = system: wheat (Triticum aestivum); assay: as above
# In short: as §1
# [13] = system: blackgrass (Alopecurus myosuroides); assay: as above
# In short: as §1
# [14] = system: oat, wild (wild oat, Avena fatua); assay: Test A preemergence soil spray, visual injury rating 0-100; details: 10 days
# In short: as §1
# [15] = system: ryegrass, Italian (italian ryegrass, Lolium multiflorum); assay: as above; details: 10 days
# In short: as §1
# [16] = system: ragweed (common ragweed, Ambrosia artemisiifolia); assay: as above; details: 10 days
# In short: as §1
# [17] = system: soybean (Glycine max); assay: as above; details: 10 days
# In short: as §1
# [18] = system: green foxtail (Setaria viridis); assay: as above; details: 10 days
# In short: as §1
# [19] = system: kochia (Bassia scoparia); assay: as above; details: 10 days
# In short: as §1
# [20] = system: barnyardgrass (Echinochloa crus-galli); assay: as above; details: 10 days
# In short: as §1
# [21] = system: palmer (palmer amaranth, palmer pigweed, Amaranthus palmeri); assay: as above; details: 10 days
# In short: as §1
# [22] = system: corn (Zea mays); assay: as above; details: 10 days
# In short: as §1
# [23] = system: wheat (Triticum aestivum); assay: as above; details: 10 days
# In short: as §1
# [24] = system: blackgrass (Alopecurus myosuroides); assay: as above; details: 10 days
# In short: as §1
# [25] = system: sedge, umbrella (small-flower umbrella sedge, Cyperus difformis); assay: Test B flooded paddy test, visual plant response rating 0-100; details: 250 g ai/ha, Flood, applied to paddy water, evaluated after 13 days
# In short: (§2)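 Visual evaluation after 13 days. Water-applied treatment, 3 cm flood depth held constant, plants at 2-leaf stage at treatment.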
# [26] = system: ducksalad (Heteranthera limosa); assay: as above; details: 250 g ai/ha, Flood, applied to paddy water, evaluated after 13 days
# In short: as §2
# [27] = system: barnyardgrass (Echinochloa crusgalli); assay: as above; details: 250 g ai/ha, Flood, applied to paddy water, evaluated after 13 days
# In short: as §2
# [28] = system: rice (Oryza sativa); assay: as above; details: 250 g ai/ha, Flood, applied to paddy water, evaluated after 13 days
# In short: as §2
# [29] = 62 g ai/ha, postemergence, 10 days, 0 = no effect, 100 = complete control
# [30] = Postemergence, 16 g ai/ha, greenhouse 10 days, 0 no effect, 100 complete control
# [31] = 62 g ai/ha, 0 = no effect, 100 = complete control
compound,measurement,setting,value
CC1(C(=O)NC2CC(C(=O)OCC(F)(F)F)C2)CN(c2cc(F)cc(F)c2)C(=O)O1 (stereo not shown) [Compound 121],"Oat, Wild plant response rating (0-100)",[1]; [29],90
same,"Oat, Wild plant response rating (0 to 100 scale)",[1]; [30],40
same,"Ryegrass, Italian plant response rating (0-100)",[2]; [29],70
same,"Ryegrass, Italian plant response rating (0 to 100 scale)",[2]; [30],20
same,Horseweed plant response rating (0-100),[3]; [29],10
same,Horseweed plant response rating (0 to 100 scale),[3]; [30],0
same,Ragweed plant response rating (0-100),[4]; [29],0
same,Ragweed plant response rating (0 to 100 scale),[4]; [30],0
same,Soybean plant response rating (0-100),[5]; [29],70
same,Soybean plant response rating (0 to 100 scale),[5]; [30],50
same,Galium plant response rating (0-100),[6]; [29],60
same,Galium plant response rating (0 to 100 scale),[6]; [30],30
same,"Foxtail, Green plant response rating (0-100)",[7]; [29],90
same,"Foxtail, Green plant response rating (0 to 100 scale)",[7]; [30],70
same,Kochia plant response rating (0-100),[8]; [29],70
same,Kochia plant response rating (0 to 100 scale),[8]; [30],10
same,Barnyardgrass plant response rating (0-100),[9]; [29],100
same,Barnyardgrass plant response rating (0 to 100 scale),[9]; [30],60
same,"Pigweed, Palmer plant response rating (0-100)",[10]; [29],70
same,"Pigweed, Palmer plant response rating (0 to 100 scale)",[10]; [30],0
same,Corn plant response rating (0-100),[11]; [29],100
same,Corn plant response rating (0 to 100 scale),[11]; [30],100
same,Wheat plant response rating (0-100),[12]; [29],90
same,Wheat plant response rating (0 to 100 scale),[12]; [30],90
same,Blackgrass plant response rating (0-100),[13]; [29],100
same,Blackgrass plant response rating (0 to 100 scale),[13]; [30],90
same,"Oat, Wild plant response rating","[14]; 16 g ai/ha, 0 to 100 scale",90
same,"Oat, Wild plant response rating (0-100)",[14]; [31],90
same,"Ryegrass, Italian plant response rating","[15]; 16 g ai/ha, 0 to 100 scale",50
same,"Ryegrass, Italian plant response rating (0-100)",[15]; [31],90
same,Ragweed plant response rating,"[16]; 16 g ai/ha, 0 to 100 scale",0
same,Ragweed plant response rating (0-100),[16]; [31],0
same,Soybean plant response rating,"[17]; 16 g ai/ha, 0 to 100 scale",0
same,Soybean plant response rating (0-100),[17]; [31],0
same,"Foxtail, Green plant response rating","[18]; 16 g ai/ha, 0 to 100 scale",0
same,"Foxtail, Green plant response rating (0-100)",[18]; [31],90
same,Kochia plant response rating,"[19]; 16 g ai/ha, 0 to 100 scale",0
same,Kochia plant response rating (0-100),[19]; [31],70
same,Barnyardgrass plant response rating,"[20]; 16 g ai/ha, 0 to 100 scale",0
same,Barnyardgrass plant response rating (0-100),[20]; [31],80
same,"Pigweed, Palmer plant response rating","[21]; 16 g ai/ha, 0 to 100 scale",0
same,"Pigweed, Palmer plant response rating (0-100)",[21]; [31],70
same,Corn plant response rating,"[22]; 16 g ai/ha, 0 to 100 scale",20
same,Corn plant response rating (0-100),[22]; [31],90
same,Wheat plant response rating,"[23]; 16 g ai/ha, 0 to 100 scale",40
same,Wheat plant response rating (0-100),[23]; [31],80
same,Blackgrass plant response rating,"[24]; 16 g ai/ha, 0 to 100 scale",50
same,Blackgrass plant response rating (0-100),[24]; [31],90
same,"Plant response rating, Sedge, Umbrella (0 to 100 scale, 0 is no effect and 100 is complete control)",[25],0
same,"Plant response rating, Ducksalad (0 to 100 scale, 0 is no effect and 100 is complete control)",[26],0
same,"Plant response rating, Barnyardgrass (0 to 100 scale, 0 is no effect and 100 is complete control)",[27],0
same,"Plant response rating, Rice (0 to 100 scale, 0 is no effect and 100 is complete control)",[28],0
